Reference: patent publication US7446079B2, “Perfumes for rinse-off systems” (Givaudan Fragrances Corporation, priority 2005, dated 2008)
Where two headings read alike, the source gives them in different places.

Tests used:
[1] = GC-MS headspace release profile of Tropical Fruit perfume in shampoo, 1/100 dilution in water; type: physicochemical
Description: A 10 gram sample of formulation and fragrance was added to an empty 1000 ml pyrex beaker. This beaker was then filled with 1000 ml of 120 F tap water. Beaker with diluted shampoo sample was then immediately placed into a semi-enclosed plexiglass chamber.
Headspace Sampling: Once beaker was placed into chamber a Carboxan SPME field fiber was held at the top-side opening of the chamber over the beaker containing the sample. […] […] Top of plexiglass chamber was held open for entire 5 minutes of headspace sampling.

[2] = in water, cited from earlier work; for exp ODT (ppb) water: experimental values from the Booleans database

With `O=C1CCCCCCCCCCCC(=O)OCCO1` [ETHYLENE BRASSYLATE] the “GC Abundance” value ([1]; headspace at 50 seconds) was 20.
For `O=C1CCCCCCCCCCCCCCO1` [EXALTOLIDE TOTAL], the “GC Abundance” value ([1]; headspace at 50 seconds) was 50.
In the case of `CCOC(=O)C1OC1(C)c1ccccc1` (centres unmarked) [Ethyl 2,3-epoxy-3-methyl-3-phenylpropionate], the “exp ODT (ppb) water” value [2] is listed as 25 ppb.
With `CCOC(=O)C(C)CC` (centres unmarked) [Ethyl 2-methylbutyrate] the “GC Abundance” value ([1]; headspace at 10 seconds) was 3000, the “GC Abundance” value ([1]; headspace at 20 seconds) was 3100 and the “GC Abundance” value ([1]; headspace at 30 seconds) was 3100. The “GC Abundance” value ([1]; headspace at 40 seconds) was 2000, the “GC Abundance” value ([1]; headspace at 50 seconds) was 1500 and the “exp ODT (ppb) water” value [2] was 0.1-0.3 ppb.
In the case of `CC(C)c1cccc(C(C)CC=O)c1` (centres unmarked) [FLORHYDRAL], the “GC Abundance” value ([1]; headspace at 40 seconds) was 9000 and the “GC Abundance” value ([1]; headspace at 50 seconds) was 10000.
For `CC(C)CC1CC(C)(O)CCO1` (centres unmarked) [FLOROL], the “GC Abundance” value ([1]; headspace at 40 seconds) was 10000 and the “GC Abundance” value ([1]; headspace at 50 seconds) was 15000.
In the case of `CCOC(=O)CC1(C)OCCO1` [FRUCTONE], the “GC Abundance” value ([1]; headspace at 20 seconds) was 3000, the “GC Abundance” value ([1]; headspace at 30 seconds) was 5000 and the “GC Abundance” value ([1]; headspace at 40 seconds) was 5000. The “GC Abundance” value ([1]; headspace at 50 seconds) was 5000, the “ODT (ppb)” value ([2]; Table 9) was “less than 50 ppb” and the “ODT (ppb)” value ([2]; Table 11) was “less than 50 ppb”. The “ODT (ppb)” value ([2]; Table 13) was “less than 50 ppb”.
For `CCCCCCC1CCC(=O)O1` (centres unmarked) [GAMMA-DECALACTONE, 5-Hexyldihydro-2(3H)-furanone], the “GC Abundance” value ([1]; headspace at 40 seconds) is listed as 4000, the “GC Abundance” value ([1]; headspace at 50 seconds) is listed as 7000 and the “ODT (ppb)” value ([2]; Table 9) is listed as “less than 50 ppb”. The “ODT (ppb)” value ([2]; Table 11) was “less than 50 ppb” and the “ODT (ppb)” value ([2]; Table 13) was “less than 50 ppb”.
In the case of `CCCCCC1C(=O)CCC1CC(=O)OC` (centres unmarked) [HEDIONE], the “GC Abundance” value ([1]; headspace at 50 seconds) is given as 4000, the “ODT (ppb)” value ([2]; Table 9) is given as “less than 50 ppb” and the “ODT (ppb)” value ([2]; Table 11) is given as “less than 50 ppb”. The “ODT (ppb)” value ([2]; Table 13) was “less than 50 ppb”.
For `CC(C=O)Cc1ccc2c(c1)OCO2` (centres unmarked) [HELIONAL], the “GC Abundance” value ([1]; headspace at 40 seconds) was 500 and the “GC Abundance” value ([1]; headspace at 50 seconds) was 5000.
In the case of `CCCCCCOC(C)=O` [HEXYL ACETATE], the “ODT (ppb)” value ([2]; Table 9) is listed as “less than 50 ppb”, the “ODT (ppb)” value ([2]; Table 11) is listed as “less than 50 ppb” and the “ODT (ppb)” value ([2]; Table 13) is listed as “less than 50 ppb”.
In the case of `C=C(C)C1CC=C(C)C(=O)C1` (centres unmarked) [I-1-Methyl-4-isopropenyl-6-cyclohexen-2-one], the “exp ODT (ppb) water” value [2] is given as 50 ppb.
For `CC/C=C\CCOC(=O)OC` [LIFFAROME], the “GC Abundance” value ([1]; headspace at 20 seconds) was 3000, the “GC Abundance” value ([1]; headspace at 30 seconds) was 3000 and the “GC Abundance” value ([1]; headspace at 40 seconds) was 3000. For the same compound, the “GC Abundance” value ([1]; headspace at 50 seconds) was 3000.
For `CC(C=O)Cc1ccc(C(C)(C)C)cc1` (centres unmarked) [LILIAL], the “ODT (ppb)” value ([2]; Table 9) is listed as “less than 50 ppb”, the “ODT (ppb)” value ([2]; Table 11) is listed as “less than 50 ppb” and the “ODT (ppb)” value ([2]; Table 13) is listed as “less than 50 ppb”.
For `CC(C)(O)CCCC1=CCC(C=O)CC1` (centres unmarked) [LYRAL], the “ODT (ppb)” value ([2]; Table 13) is listed as “less than 50 ppb”.
With `CC1OC(C)C2Cc3ccccc3C2O1` (centres unmarked) [MAGNOLAN/CORPS 719] the “GC Abundance” value ([1]; headspace at 40 seconds) was 1000 and the “GC Abundance” value ([1]; headspace at 50 seconds) was 3000.
In the case of `COC(=O)c1c(C)cc(O)c(C)c1O` [METHYL ATRATATE], the “GC Abundance” value ([1]; headspace at 50 seconds) was 50.
For `CC(=O)OC/C=C(/C)CCC=C(C)C` [NERYL ACETATE], the “ODT (ppb)” value ([2]; Table 9) is listed as “less than 50 ppb”, the “ODT (ppb)” value ([2]; Table 11) is listed as “less than 50 ppb” and the “ODT (ppb)” value ([2]; Table 13) is listed as “less than 50 ppb”.
In the case of `CC(C)C(=O)OCCOc1ccccc1` [PHENOXY ETHYL ISOBUTYRATE], the “ODT (ppb)” value ([2]; Table 9) is listed as “less than 50 ppb”, the “ODT (ppb)” value ([2]; Table 11) is listed as “less than 50 ppb” and the “ODT (ppb)” value ([2]; Table 13) is listed as “less than 50 ppb”.
In the case of `CCCCCOC(C)=O` [Pentyl Acetate], the “exp ODT (ppb) water” value [2] is given as 43 ppb.
For `CCCCCOC(=O)CCC` [Pentyl butyrate], the “exp ODT (ppb) water” value [2] is listed as 44-87 ppb.
In the case of `CC1=CCC(CCC(C)C(C)O)C1(C)C` (centres unmarked) [SANDALORE], the “GC Abundance” value ([1]; headspace at 50 seconds) was 2000.
In the case of `CC(=O)OC(C)(C)C1CC=C(C)CC1` (centres unmarked) [TERPINYL ACETATE], the “GC Abundance” value ([1]; headspace at 30 seconds) was 1000, the “GC Abundance” value ([1]; headspace at 40 seconds) was 9000 and the “GC Abundance” value ([1]; headspace at 50 seconds) was 9000.
With `CCC=C(C)C(O)CCCCC` (centres unmarked) [UNDECAVERTOL, 4-Methyl-3-decen-5-ol] the “GC Abundance” value ([1]; headspace at 40 seconds) was 10000 and the “GC Abundance” value ([1]; headspace at 50 seconds) was 10000.
For `CC(=O)OC1CCC(C(C)(C)C)CC1` (centres unmarked) [VERTENEX HC], the “GC Abundance” value ([1]; headspace at 30 seconds) was 2000, the “GC Abundance” value ([1]; headspace at 40 seconds) was 8000 and the “GC Abundance” value ([1]; headspace at 50 seconds) was 10000.
In the case of `CC(=O)C=CC1C(C)=CCCC1(C)C` (stereo not drawn) [alpha ionone, 4-(2,2,6-Trimethyl-2-cyclohexen-1-yl)-3-buten-2-one], the “exp ODT (ppb) water” value [2] is listed as 0.4-10 ppb.
In the case of `C=C(C)[C@H]1CC=C(C)CC1` [d-LIMONENE, d-1-Methyl-4-isopropenyl-1-cyclohexene], the “GC Abundance” value ([1]; headspace at 5 seconds, Tropical Fruit perfume 1% in shampoo) was 7000, the “GC Abundance” value ([1]; headspace at 10 seconds) was 7000 and the “GC Abundance” value ([1]; headspace at 20 seconds) was 7000. For the same compound, the “GC Abundance” value ([1]; headspace at 30 seconds) was 7000, the “GC Abundance” value ([1]; headspace at 40 seconds) was 5000 and the “GC Abundance” value ([1]; headspace at 50 seconds) was 4000.
For `CC(C)=CCCC(C)C=O` (centres unmarked) [melonal, 2,6-Dimethyl-5-heptenal], the “exp ODT (ppb) water” value [2] is listed as 16 ppb.
For `CCC(=O)OC/C=C(\C)CCC=C(C)C` [trans-3,7-Dimethyl-2,6-octadien-1-yl propanoate], the “exp ODT (ppb) water” value [2] is given as 10 ppb.
In the case of OXANONE CRYSTALS, the “GC Abundance” value ([1]; headspace at 50 seconds) was 70.
With VERTOFIX COEUR the “GC Abundance” value ([1]; headspace at 50 seconds) was 50.
